Test results published in PubChem BioAssay (NCI).
“And” between values parts separate entries of the source, which are not always exact repeats. Identical values can stand only once.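 Test compounds were applied to cells in 96-well plates for 48 hours at 5 doses. GI50 is the concentration that inhibits growth by half. TGI marks complete inhibition of growth.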

Legend:
Assay in all cases: NCI-60 cell line screen, 48 h
786-0 renal = test system: 786-0 renal
BT-549 breast = test system: BT-549 breast
CAKI-1 renal = test system: CAKI-1 renal
HL-60(TB) leukemia = test system: HL-60(TB) leukemia
OVCAR-8 ovarian = test system: OVCAR-8 ovarian
SF-539 CNS = test system: SF-539 CNS
SK-MEL-28 melanoma = test system: SK-MEL-28 melanoma
U251 CNS = test system: U251 CNS
LOX IMVI melanoma = test system: LOX IMVI melanoma
SF-268 CNS = test system: SF-268 CNS

Row | SMILES | TGI (786-0 renal) | GI50 (BT-549 breast) [µM] | TGI (BT-549 breast) [µM] | GI50 (CAKI-1 renal) | TGI (CAKI-1 renal) | GI50 (HL-60(TB) leukemia) [µM] | TGI (HL-60(TB) leukemia) [µM] | TGI (OVCAR-8 ovarian) | GI50 (SF-539 CNS) [µM] | TGI (SF-539 CNS) [µM] | TGI (SK-MEL-28 melanoma) | TGI (U251 CNS) | TGI (LOX IMVI melanoma) [µM] | TGI (SF-268 CNS) [µM] | GI50 (786-0 renal) [µM] | GI50 (LOX IMVI melanoma) [µM] | GI50 (OVCAR-8 ovarian) [µM] | GI50 (SK-MEL-28 melanoma) [µM] | GI50 (U251 CNS) [µM] | GI50 (SF-268 CNS) [µM]
1 | COc1ccc(S(=O)(=O)N2CCN(C(=O)c3ccc(-c4ccccc4)cc3)CC2C(=O)NO)cc1 (stereo not drawn) | 12.4 µM and > 100 µM | 2.48 | 6.69 | 2.99 µM and 21.9 µM | 12.5 µM and > 100 µM | 16.8 | 38.1 | 12.5 µM and > 100 µM | 1.98 | 4.22 | 12.5 µM and > 100 µM | 12.5 µM and > 100 µM |  |  |  |  |  |  |  | 
2 | CCC(=O)c1c(NOC2OCC(OC(C)=O)C(OC(C)=O)C2OC(C)=O)nc(OC)n(C)c1=O (stereo not drawn) | > 100 µM |  |  |  | > 100 µM |  | > 100 | > 100 µM |  | > 100 | > 100 µM | > 100 µM | > 100 | > 100 |  |  |  |  |  | 
3 | COc1cc2c(c(OC)c1OC)-c1ncc3c(OC)c(OC)c(OC)cc3c1C2 | > 100 µM | 25.4 | 55.2 | 23.9 µM | 83.5 µM |  |  | 58.2 µM |  |  | > 100 µM | > 100 µM | 32.3 |  | 36.5 | 16.2 | 18.9 | 34.9 | 36.9 | 
4 | O=S(=O)(NC1=NCCN1C(=S)SN1CCn2c1nsc2=S)c1cccc2ccccc12 | 72.6 µM |  |  | 22.8 µM | 69.7 µM | 30.9 | 99.3 | 43.8 µM | 21.1 | 46 | > 100 µM | 49.9 µM | 55 | > 100 | 23.9 | 20.4 | 17.5 | 58.6 | 20.6 | 23.3
5 | Cc1nn[n-]n1.N.N.N.N.N.[Cl-].[Co+3] | > 100 µM |  |  | > 100 µM | > 100 µM | > 100 | > 100 | > 100 µM | > 100 | > 100 | > 100 µM | > 100 µM | > 100 | > 100 | > 100 | > 100 | > 100 | > 100 | > 100 | > 100
6 | C#Cc1cccc(N2C(=O)c3c(c(-c4ccccc4)c(-c4ccc(Cc5ccc(-c6c(-c7ccccc7)c7c(c(-c8ccccc8)c6-c6ccccc6)C(=O)N(c6cccc(C#C)c6)C7=O)cc5)cc4)c(-c4ccccc4)c3-c3ccccc3)C2=O)c1 | > 100 µM |  |  |  |  |  | > 100 | > 100 µM |  | > 100 | > 100 µM | > 100 µM |  | > 100 |  |  |  |  |  | 
7 | O=C(O)c1ccc(CI)cc1 | 10.8 µM |  |  |  | 27.6 µM |  | 42.4 | 37.3 µM |  | 32.1 | 31.9 µM | 20.8 µM |  | 39.8 |  |  |  |  |  | 
8 | COc1ccc(N=NC(C(=O)c2ccccc2)C(=O)c2ccccc2)cc1 | 61 µM |  |  |  | > 100 µM |  | 32.7 | > 100 µM |  | 84.9 | > 100 µM | > 100 µM | 47 | > 100 |  |  |  |  |  | 
9 | O=c1/c(=C/c2ccccc2[N+](=O)[O-])sc2nc3ccccc3n12 | > 46.4 µM |  |  |  | > 100 µM |  | > 46.4 | > 46.4 µM |  | 37.9 | > 46.4 µM | 41.9 µM | 31.9 | > 46.4 |  |  |  |  |  | 
10 | O=C(CCC(=O)Nc1ccc(Cl)c(Cl)c1)CC(=O)c1ccc(Br)cc1 | > 100 µM |  |  |  | > 100 µM |  |  | > 100 µM |  | > 100 | > 100 µM | > 100 µM | > 100 | > 100 |  |  |  |  |  | 
11 | CCc1ccc(NC(=O)NC(=O)c2ccccc2[N+](=O)[O-])cc1Oc1ncc(Cl)cn1 | 1.01 µM |  | 35.7 |  |  |  | 0.0247 | > 100 µM |  |  | > 4.64 µM | > 100 µM | 14.5 | > 16.9 |  |  |  |  |  | 
12 | NS(=O)(=O)c1ccc(-n2nc3c(c2-c2ccc(Cl)cc2)Cc2ccccc2-3)cc1 | 30.7 µM |  |  | 17.5 µM | 31.6 µM |  |  | 44 µM | 17.5 | 31.6 | 35 µM | 37.3 µM | 37.4 | 50.4 | 14.6 | 19 | 21.6 | 18.3 | 19.5 | 22.4
13 | O=C(/C=C/C12c3ccccc3C(c3ccccc31)C1C(=O)NC(=O)C12)c1ccc(Cl)cc1Cl (stereo not drawn) | 3.22 µM | 1.66 | 3.27 | 1.57 µM | 3.05 µM |  |  | 3.98 µM | 1.59 | 2.96 | 3.27 µM | 3.06 µM | 3.57 | 3.44 | 1.7 | 1.88 | 1.88 | 1.78 | 1.68 | 1.79
14 | COc1ccc(NC(=O)/C(=C/c2ccccc2)C(C)=O)cc1 | 28.6 µM |  |  |  | 29.2 µM |  | 17.7 | 51.5 µM |  | 28.7 | 26.1 µM | 29.4 µM | 27.8 | 34.3 |  |  |  |  |  | 
15 | COC(=O)C1C(O)CCC2CN3CCc4c([nH]c5ccccc45)C3CC21 (stereo not drawn) | > 100 µM |  | > 100 | > 100 µM | > 100 µM |  |  | > 100 µM |  | > 100 | > 100 µM | > 100 µM | > 100 | > 100 |  |  |  |  |  | 
16 | CCOC(=O)C1=C(Nc2ccc(Cl)cc2Cl)OCC1=O | > 100 µM |  |  |  | > 100 µM |  | > 100 | > 100 µM |  | > 100 | > 100 µM | > 100 µM | > 100 | > 100 |  |  |  |  |  | 
17 | CC1=C[C@H]2c3c([nH]c4ccccc34)C(c3c[nH]c4ccccc34)[C@H]2CC1 (stereo partly drawn) | 11.2 µM |  |  |  | 26.3 µM |  | 17.6 | 28 µM |  | 25.6 | 26 µM | 16.3 µM | 5.83 |  |  |  |  |  |  | 
18 | COc1ccc(/C=C/C(=O)/C=C/c2cc3ccccc3[nH]c2=O)cc1 | 3.51 µM | 2.25 | 6.19 | 4.3 µM | 17.8 µM | 3.24 | 17.6 | 22.4 µM | 2.63 | 7.13 | 34.7 µM | 3.73 µM |  | 11.4 | 1.87 |  | 3.55 | 13.9 | 1.81 | 3.11
